logP data for 16 compounds are collected here from the SangsterLogP compilation.

In general, logP refers to a log measure of how a compound divides between an organic and an aqueous phase. High values mean a more lipophilic compound, low ones a more hydrophilic compound.

For the compound `CCOCn1c(-c2ccc(Cl)cc2)c(C#N)c(Br)c1C(F)(F)F`, the logP is 4.61.

Take `C=CCc1ccccc1OC[C@@H](O)CNC(C)C`: the logP stood at 2.63.

`CCCCOCCOCCOCc1cc2c(cc1CCC)OCO2`: the logP was found to be 4.39.

`Oc1ccc(Oc2ccccc2)cc1` displayed a logP of 3.92.

The compound `CC(C)C(C(=O)OC(C#N)c1cccc(Oc2ccccc2)c1)c1ccc(Cl)cc1` (stereo unspecified) showed a logP of 5.71.

`CC(C)(C)c1ccc(CCOc2ncnc3ccccc23)cc1` registered a logP of 4.91.

For the compound `CC(C)N(C(=O)COc1nnc(C(F)(F)F)s1)c1ccc(F)cc1`, the log partition coefficient (logP) came to 3.19.

The compound `COc1ccc(-c2ccccc2)cc1NNC(=O)OC(C)C` displayed a logP of 3.8.

The compound `CCCN(CCC)c1c([N+](=O)[O-])cc(C(F)(F)F)cc1[N+](=O)[O-]` showed a logP of 4.98.

`N#Cc1c[nH]cc1-c1cccc(Cl)c1Cl` yielded a lipophilicity (logP) of 3.78.

The compound `CON=C1C[C@]2(C[C@@H]3C[C@@H](C/C=C(\C)C[C@@H](C)C=C/C=C4\CO[C@@H]5[C@H](O)C(C)=C[C@@H](C(=O)O3)[C@]45O)O2)O[C@H](/C(C)=C/C(C)C)[C@H]1C` had a logP of 4.99.

`COP(=S)(OC)SCC(=O)N(c1ccc(Cl)cc1)C(C)C`: the logP came to 3.8.

With `C[C@H]1O[C@@H](O[C@H]2[C@@H](O)C[C@H](O[C@H]3[C@@H](O)C[C@H](O[C@H]4CC[C@@]5(C)[C@H](CC[C@@H]6[C@@H]5CC[C@]5(C)[C@@H](C7=CC(=O)OC7)CC[C@]65O)C4)O[C@@H]3C)O[C@@H]2C)C[C@H](O)[C@@H]1O`, the logP is 3.42.

As to `CN(C)CCC=C1c2ccccc2COc2ccccc21`, the logP was found to be 3.75.

The compound `CC1=C(C(=O)Nc2ccccc2)S(=O)(=O)CCO1` returned a logP of 1.13.

Compound `CO/C=C(/C(=O)OC)c1ccccc1Oc1cc(Oc2ccccc2C#N)ncn1` showed a logP of 2.97.
